Laboratory results published in patent publication US20140024803A1, “18FDG MULTIMERIC POSITRON EMISSION TOMOGRAPHY IMAGING AGENTS” (priority 2012, published 2014).

Test: In vitro calcium salt specificity experiment (PET/CT of crystals after incubation and washing)
Type: binding
Details: 5 mg/mL calcium salts (HA, phosphate, oxalate, carbonate, pyrophosphate), 10 μCi in 100 μL PBS, 20 min at RT, washed, 10 minute static PET/CT scan
Procedure: To determine the selectivity and specificity of ^18FDG amino-Ad-Pam-Monomer for hydroxyapatite (HA), a major mineral component of calcifications and normal bone, over other calcium salts, in the present invention an incubation of equal quantity each of Ca-hydroxyapatite (HA), Ca-pyrophosphate (CPP), Ca-phosphate (CP), Ca-oxalate (CO), and Ca-carbonate (CC) salts with ^18FDG amino-Ad-Pam-Monomer in phosphate buffered saline (PBS) is performed. PET/CT images are acquired after incubation and washing of crystals, ^18FDG amino-Ad-Pam-Monomer has about 5-fold specificity for HA over other calcium salts found in the body and permits PET/CT detection of HA with high sensitivity. However, Na^18F, the Food and Drug Administration approved imaging agent for bone scintigraphy, permits about 1.5 fold specificity for HA over other calcium salts.
In a 96-well plate, 5 mg/mL of hydroxyapatite (HA) or the phosphate, oxalate, carbonate, and pyrophosphate salts of calcium are separately incubated with ^18FDG amino-Ad-Pam-Monomer (10 μCi) in 100 μL PBS for 20 min with continuous vortexing at RT. Crystals are washed 4 times with a 100-fold excess of PBS, centrifuged and mounted on PET/CT and 10 minute static scans are acquired. Similarly, calcium salt binding study is performed with Na^18F in a same condition.

[18F-].[Na+] [Na^18F]
specificity for HA over other calcium salts: about 1.5 fold
